Measured values taken from US8192962B2, “Processes for detecting toxic substances” (Daikin Industries, Ltd., priority 2001, dated 2012).

Test system: Mitochondria-located protein genes
Experiment: DNA chip mRNA expression in yeast, mitochondria-located protein genes (Table 2)
Format: cell-based, Saccharomyces cerevisiae S288C
Settings: cells incubated two hours with the chemical substance
Method in brief: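 In this screen, yeast in logarithmic growth are challenged for two hours with a toxic substance at a non-lethal inhibitory concentration. Their mRNA, converted to Cy3- or Cy5-labeled cDNA, hybridizes at 65° C. to a chip spanning every yeast gene, and expression is expressed as a ratio to untreated cells.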

C=CC=O [(14), acrolein]
The level of expressed mRNA in the presence of chemical substance/The level of expressed mRNA in the absence of chemical substance (yeast gene YAL039C): 1.2 | The level of expressed mRNA in the presence of chemical substance/The level of expressed mRNA in the absence of chemical substance (yeast gene YBL022C): 1.0 | The level of expressed mRNA in the presence of chemical substance/The level of expressed mRNA in the absence of chemical substance (yeast gene YBL030C): 0.8 | The level of expressed mRNA in the presence of chemical substance/The level of expressed mRNA in the absence of chemical substance (yeast gene YBL038W): 2.3 | The level of expressed mRNA in the presence of chemical substance/The level of expressed mRNA in the absence of chemical substance (yeast gene YBL099W): 0.6 | The level of expressed mRNA in the presence of chemical substance/The level of expressed mRNA in the absence of chemical substance (yeast gene YBR003W): 0.8 | The level of expressed mRNA in the presence of chemical substance/The level of expressed mRNA in the absence of chemical substance (yeast gene YBR044C): 0.9 | The level of expressed mRNA in the presence of chemical substance/The level of expressed mRNA in the absence of chemical substance (yeast gene YBR091C): 1.7 | The level of expressed mRNA in the presence of chemical substance/The level of expressed mRNA in the absence of chemical substance (yeast gene YBR122C): 1.2 | The level of expressed mRNA in the presence of chemical substance/The level of expressed mRNA in the absence of chemical substance (yeast gene YBR185C): 1.7 | The level of expressed mRNA in the presence of chemical substance/The level of expressed mRNA in the absence of chemical substance (yeast gene YBR221C): 0.8 | The level of expressed mRNA in the presence of chemical substance/The level of expressed mRNA in the absence of chemical substance (yeast gene YBR251W): 1.6 | The level of expressed mRNA in the presence of chemical substance/The level of expressed mRNA in the absence of chemical substance (yeast gene YBR282W): 1.4 | The level of expressed mRNA in the presence of chemical substance/The level of expressed mRNA in the absence of chemical substance (yeast gene YCL057W): 1.0 | The level of expressed mRNA in the presence of chemical substance/The level of expressed mRNA in the absence of chemical substance (yeast gene YCR046C): 1.3 | The level of expressed mRNA in the presence of chemical substance/The level of expressed mRNA in the absence of chemical substance (yeast gene YCR083W): 2.4 | The level of expressed mRNA in the presence of chemical substance/The level of expressed mRNA in the absence of chemical substance (yeast gene YDL067C): 1.4 | The level of expressed mRNA in the presence of chemical substance/The level of expressed mRNA in the absence of chemical substance (yeast gene YDL181W): 1.1 | The level of expressed mRNA in the presence of chemical substance/The level of expressed mRNA in the absence of chemical substance (yeast gene YDL198C): 1.7 | The level of expressed mRNA in the presence of chemical substance/The level of expressed mRNA in the absence of chemical substance (yeast gene YDR079W): 1.5 | The level of expressed mRNA in the presence of chemical substance/The level of expressed mRNA in the absence of chemical substance (yeast gene YDR178W): 1.5 | The level of expressed mRNA in the presence of chemical substance/The level of expressed mRNA in the absence of chemical substance (yeast gene YDR231C): 1.5 | The level of expressed mRNA in the presence of chemical substance/The level of expressed mRNA in the absence of chemical substance (yeast gene YDR258C): 1.5 | The level of expressed mRNA in the presence of chemical substance/The level of expressed mRNA in the absence of chemical substance (yeast gene YDR298C): 1.5 | The level of expressed mRNA in the presence of chemical substance/The level of expressed mRNA in the absence of chemical substance (yeast gene YDR347W): 1.5 | The level of expressed mRNA in the presence of chemical substance/The level of expressed mRNA in the absence of chemical substance (yeast gene YDR377W): 1.4 | The level of expressed mRNA in the presence of chemical substance/The level of expressed mRNA in the absence of chemical substance (yeast gene YDR529C): 1.5 | The level of expressed mRNA in the presence of chemical substance/The level of expressed mRNA in the absence of chemical substance (yeast gene YEL024W): 1.1 | The level of expressed mRNA in the presence of chemical substance/The level of expressed mRNA in the absence of chemical substance (yeast gene YEL039C): 1.4 | The level of expressed mRNA in the presence of chemical substance/The level of expressed mRNA in the absence of chemical substance (yeast gene YER178W): 0.9 | The level of expressed mRNA in the presence of chemical substance/The level of expressed mRNA in the absence of chemical substance (yeast gene YFL016C): 0.8 | The level of expressed mRNA in the presence of chemical substance/The level of expressed mRNA in the absence of chemical substance (yeast gene YGL018C): 1.2 | The level of expressed mRNA in the presence of chemical substance/The level of expressed mRNA in the absence of chemical substance (yeast gene YGL187C): 0.9 | The level of expressed mRNA in the presence of chemical substance/The level of expressed mRNA in the absence of chemical substance (yeast gene YGL191W): 1.6 | The level of expressed mRNA in the presence of chemical substance/The level of expressed mRNA in the absence of chemical substance (yeast gene YGR008C): 1.3 | The level of expressed mRNA in the presence of chemical substance/The level of expressed mRNA in the absence of chemical substance (yeast gene YGR028W): 1.2 | The level of expressed mRNA in the presence of chemical substance/The level of expressed mRNA in the absence of chemical substance (yeast gene YGR062C): 1.2 | The level of expressed mRNA in the presence of chemical substance/The level of expressed mRNA in the absence of chemical substance (yeast gene YGR076C): 2.3 | The level of expressed mRNA in the presence of chemical substance/The level of expressed mRNA in the absence of chemical substance (yeast gene YGR082W): 0.9 | The level of expressed mRNA in the presence of chemical substance/The level of expressed mRNA in the absence of chemical substance (yeast gene YGR174C): 1.6 | The level of expressed mRNA in the presence of chemical substance/The level of expressed mRNA in the absence of chemical substance (yeast gene YGR244C): 1.2 | The level of expressed mRNA in the presence of chemical substance/The level of expressed mRNA in the absence of chemical substance (yeast gene YHR008C): 1.6 | The level of expressed mRNA in the presence of chemical substance/The level of expressed mRNA in the absence of chemical substance (yeast gene YIL155C): 1.3 | The level of expressed mRNA in the presence of chemical substance/The level of expressed mRNA in the absence of chemical substance (yeast gene YJL096W): 2.1 | The level of expressed mRNA in the presence of chemical substance/The level of expressed mRNA in the absence of chemical substance (yeast gene YJL102W): 1.5 | The level of expressed mRNA in the presence of chemical substance/The level of expressed mRNA in the absence of chemical substance (yeast gene YJL133W): 0.7 | The level of expressed mRNA in the presence of chemical substance/The level of expressed mRNA in the absence of chemical substance (yeast gene YJL166W): 1.9 | The level of expressed mRNA in the presence of chemical substance/The level of expressed mRNA in the absence of chemical substance (yeast gene YJL180C): 1.4 | The level of expressed mRNA in the presence of chemical substance/The level of expressed mRNA in the absence of chemical substance (yeast gene YJR045C): 0.5 | The level of expressed mRNA in the presence of chemical substance/The level of expressed mRNA in the absence of chemical substance (yeast gene YJR077C): 0.7
